Results published in patent US20260000655A1, “PHARMACEUTICAL COMPOSITION FOR USE IN PREVENTION OR TREATMENT OF LIFESTYLE-RELATED DISEASE” (priority 2022, published 2026).

Legend:
[1] = system: adenosine monophosphate-activated protein kinase (AMPK); test: Activation of AMPK (p-AMPK/AMPK, Western blotting) in liver cell model HepG2; type: cell-based, human; settings: HPH-15 at 1/40th the concentration of metformin (2 mM), 24 hours
Source text: The tissues involved in glucose uptake and glucose metabolism are mainly the muscle, the liver, and the fat. Thus, using a cell model of each tissue, the relationship between HPH-15 and activation of adenosine monophosphate-activated protein kinase (AMPK) was examined. Note that AMPK is known as a therapeutic target for diabetes. AMPK acts as an energy sensor, and when it detects a decrease in ATP serving as an intracellular energy source, it suppresses the synthesis of glucose, fats, and proteins and produces ATP. Exercise therapy for diabetes is based on this mechanism. Further, AMPK has been drawing attention as a factor that improves insulin resistance.
As a muscle cell model to be used, rat myoblast cell line L6-GLUT4myc (myoblasts expressing myc-tagged GLUT4) was cultured in a minimal essential medium a-MEM (10% FBS) and differentiated into myotubes. Differentiation into myotubes was performed by culturing L6-GLUT4 cells in a-MEM (10% FBS) and then changing the medium to a-MEM (2% FBS), followed by culturing for 6 days. Human HepG2 cell line was used as a liver cell model. As an adipocyte model to be used, mouse 3T3-L1 preadipocyte cell line was differentiated into adipocytes. Differentiation into adipocytes was performed as follows. […]
Next, bands of AMPK and p-AMPK were quantified using ImageJ to determine a ratio of activated AMPK relative to AMPK (p-AMPK/AMPK).

[2] = system: high-fat diet-induced obesity model mice; test: Pyruvic acid loading test in mouse; type: in vivo; settings: HPH-15 10 mg/kg or 100 mg/kg orally, 28 days; pyruvic acid 2 g/kg intraperitoneally; compared to olive oil
Procedure: The effect of HPH-15 on the changes in blood glucose levels in the presence of pyruvic acid involving in gluconeogenesis was examined using mice.
High-fat diet-induced obesity model mice were prepared in the same manner as in Example 7. Then, HPH-15 (10 mg/kg or 100 mg/kg, […]) dissolved in olive oil or metformin (300 mg/kg, […]) was orally administered once a day for 28 days. Olive oil alone was administered as a control. After 28 days of administration of each, pyruvic acid was intraperitoneally administered (2 g/kg) to the high-fat diet-induced obesity model mice, and blood glucose levels (mg/dl) were measured at 0, 15, 30, 60, 90, and 120 minutes after administration using a blood glucose meter Glutest Aqua (Sanwa Kagaku Kenkyusho Co., Ltd.).

[3] = Body weight during administration in mouse; type: in vivo; settings: HPH-15 10 mg/kg or 100 mg/kg orally once a day for 28 days; high-fat diet
Procedure: Four-week-old […] mice (CLEA Japan, Inc.) were fed a high-fat diet HFD (CLEA Japan, Inc.) for two months to prepare high-fat diet-induced obesity model mice. Then, HPH-15 (10 mg/kg or 100 mg/kg, […]) dissolved in olive oil (Kenei Pharmaceutical Co., Ltd.) or metformin (300 mg/kg, […]) was orally administered once a day for 28 days. Olive oil alone was administered as a control. Body weight, random blood glucose levels, and fasting blood glucose levels were measured every 7 days using a blood glucose meter Glutest Aqua (Sanwa Kagaku Kenkyusho Co., Ltd.). Fasting blood glucose levels were measured after 12-hour fasting. Note that, during the drug administration period, the mice were fed the high-fat diet HFD. The results of random blood glucose levels (mg/dl) are shown in FIG. 7A, and the results of fasting blood glucose levels (mg/dl) are shown in FIG. 7B.

[4] = system: high-fat diet-induced obesity model mice; test: H&E staining of mouse tissue; type: in vivo
Procedure: High-fat diet-induced obesity model mice were prepared in the same manner as in Example 7. Note that the high-fat diet-induced obesity model mice develop liver damage and are thus used as a liver disease model. Then, HPH-15 (10 mg/kg or 100 mg/kg, […]) dissolved in olive oil or metformin (300 mg/kg, […]) was orally administered once a day for 28 days. Olive oil alone was administered as a control. After administration of each for 28 days, the liver, epididymis, and muscle of the high-fat diet-induced obesity model mice were stained with H&E and observed using a microscope. The results of H&E staining of the liver are shown in FIG. 12A, the results of H&E staining of the epididymis are shown in FIG. 12B, and the results of H&E staining of the muscle are shown in FIG. 12C.

[5] = HPH-15 10 or 100 mg/kg orally 28 days

CC(C)(C)SCCNC(=S)c1cccc(C(=S)NCCSC(C)(C)C)n1 [HPH-15]
AMPK activation (p-AMPK/AMPK) compared to when metformin was used [1]: approximately 40%
blood glucose levels after pyruvic acid loading [2]: significantly lowered
changes in body weight during the test period [3]: no significant differences were observed
visible fat in liver tissue and epididymal adipose tissue (H&E) ([4]; HPH-15 100 mg/kg orally 28 days): almost no fat was visible
cell area ratio in the epididymal adipose tissue (size of adipocytes, H&E) [4, 5]: reducing the cell area ratio
macrophage infiltration in epididymal adipose tissue (H&E) [4, 5]: does not cause macrophage infiltration
percentage of fat in the liver tissue (H&E) ([4]; HPH-15 10 or 100 mg/kg orally 28 days, compared to the control and metformin 300 mg/kg): significantly reducing the percentage of fat in the liver tissue
tissue changes or toxicity in the muscle (H&E) ([4]; orally once a day 28 days, FIG. 12C): no tissue changes or toxicity was observed
